These compounds were tested on Vcap cells (assay: Dihydrotestosterone (DHT) mediated XTT cell proliferation assay for screening AR antagonists using Vcap cells). Details: Homo sapiens, 240 h, in the presence of 0.2 nM DHT, XTT readout on Day 10, IC50 curves from 8 concentrations.
Format: cell-based
Protocol: Dihydrotestosterone (DHT) Mediated XTT Cell Proliferation Assay for Screening AR Antagonists Using Vcap cells
The Vcap cells (4×10^6 cells) were seeded in a T-75 flask containing DMEM with 15% FBS. After 72 hours, the media was removed; the cells were washed once and replaced with phenol red free DMEM containing 8% charcoal stripped serum. Then, the cells were starved in phenol red free DMEM with 8% charcoal stripped serum for 5 days. Following the starvation, the cells were harvested and seeded in 96 well plates (10×10^3 cells per well) in phenol red free DMEM with 8% charcoal stripped serum (Day 0). The cells were allowed to settle and on Day 4 they were treated with different concentrations of the compound (30 μM, 10 μM, 1 μM, 500 nM, 100 nM, 10 nM, 1 nM, 0.1 nM) in the presence of 0.2 nM DHT. DHT alone and a DMSO controls were also included. All treatments were done in triplicate. The drugs were replenished on Day 7 and the cells were allowed to grow for another 72 hours. On Day 10, the experiment was terminated by adding the XTT reagent (2,3-bis[2-methoxy-4-notro-5-sulfophenyl]-2H-tetrazolium-5-caboxyanilide inner salt) dissolved in Phenol red free DMEM without serum. The cells with the XTT reagents were incubated inside the CO2 incubator for 3-4 hours for color development; after which the readings were taken at […] using a spectramax Gemini plate reader.
Data fitting: The IC50 curves for the 8 compound concentrations were calculated with GraphPad Prism software using the sigmoidal dose-response function. (Graphpad Software, San Diego, Calif., USA).

SMILES	IC50
Cc1cc(N2C(=O)N(c3ccc(C#N)c(C(F)(F)F)c3)[C@H]3CCCC[C@@H]32)ccc1C(=O)O [Example 69, 4-((3aS,7aS)-3-(4-cyano-3-(trifluoromethyl)phenyl)-2-oxooctahydro-1H-benzo[d]imidazol-1-yl)-2-methylbenzoic acid]	> 10 µM
CNC(=O)c1ccc(N2C(=O)N(c3ccc(C#N)c(C(F)(F)F)c3)[C@@H]3CC=CC[C@H]32)cc1F (racemic) [Example 83, Trans-4-(3-(4-cyano-3-(trifluoromethyl)phenyl)-2-oxo-2,3,3a,4,7,7a-hexahydro-1H-benzo[c]imidazol-1-yl)-2-fluoro-N-methylbenzamide (±)]	0.148 µM
N#Cc1ccc(N2C(=O)N(c3ccoc3)[C@@H]3CCCC[C@H]32)cc1C(F)(F)F (racemic) [Example 3, Trans-4-(3-(furan-3-yl)-2-oxoocta-hydro-1H-benzo[d]imidazol-1-yl)-2-trifluoromethyl)benzonitrile (±)]	1.52 µM
N#Cc1ccc(N2C(=O)N(c3ccc(S(N)(=O)=O)c(F)c3)[C@@H]3CCCC[C@H]32)cc1C(F)(F)F (racemic) [Example 67, Trans-4-(3-(4-cyano-3-(trifluoromethyl)phenyl)-2-oxooctahydro-1H-benzo[d]imidazol-1-yl)-2-fluorobenzenesulfonamide (±)]	1.09 µM
N#Cc1ccc(N2C(=O)N(c3cccnc3F)[C@@H]3CCCC[C@H]32)cc1C(F)(F)F (racemic) [Example 59, Trans-4-(3-(2-fluoropyridin-3-yl)-2-oxooctahydro-1H-benzo[d]imidazol-1-yl)-2-(trifluoromethyl)benzonitrile (±)]	1.08 µM
N#Cc1ccc(N2C(=O)N(c3ccc(C(=O)N[C@@H]4CCOC4)c(F)c3)[C@@H]3CCCC[C@H]32)cc1C(F)(F)F (mixture of isomers) [Example 34, 4-((3aR,7aR)-3-(4-cyano-3-(trifluoromethyl)phenyl)-2-oxooctahydro-1H-benzo[d]imidazol-1-yl)-2-fluoro-N—((R)-tetrahydrofuran-3-yl)benzamide and 4-((3aS,7aS)-3-(4-cyano-3-(trifluoromethyl)phenyl)-2-oxooctahydro-1H-benzo[d]imidazol-1-yl)-2-fluoro-N—((R)-tetrahydrofuran-3-yl)benzamide]	0.317 µM
N#Cc1ccc(N2C(=O)N(c3ccc(Cl)cc3)[C@H]3CCCC[C@@H]32)cc1C(F)(F)F [Example 61, 4-((3aS,7aS)-3-(4-chlorophenyl)-2-oxooctahydro-1H-benzo[d]imidazol-1-yl)-2-(trifluoromethyl)benzonitrile]	0.348 µM
CNC(=O)c1cc(N2C(=O)N(c3ccc(C#N)c(C(F)(F)F)c3)[C@H]3CCCC[C@@H]32)ccn1 [Example 56, 4-((3aS,7aS)-3-(4-cyano-3-(trifluoromethyl)phenyl)-2-oxooctahydro-1H-benzo[d]imidazol-1-yl)-N-methylpicolinamide]	1.82 µM
N#Cc1ccc(N2C(=O)N(c3ccc(C(N)=O)cc3)[C@H]3CCCC[C@@H]32)cc1C(F)(F)F [Example 66, 4-((3aS,7aS)-3-(4-cyano-3-(trifluoromethyl)phenyl)-2-oxooctahydro-1H-benzo[d]imidazol-1-yl)benzamide]	0.261 µM
CN1CCC(ONC(=O)c2ccc(N3C(=O)N(c4ccc(C#N)c(C(F)(F)F)c4)[C@@H]4CCCC[C@H]43)cc2F)CC1 (racemic) [Example 28, Trans 4-(3-(4-cyano-3-(trifluoromethyl)phenyl)-2-oxooctahydro-1H-benzo[c]im-idazol-1-yl)-2-fluoro-N-((1-methylpiperidin-4-yl)oxy)benzamide (±)]	0.148 µM
CNC(=O)c1ccc(C2=C[C@@H]3[C@@H](CC2)N(c2ccc(C#N)c(C(F)(F)F)c2)C(=O)N3C)cc1F (racemic) [Example 88, Trans-4-(1-(4-cyano-3-(trifluoromethyl)phenyl)-3-methyl-2-oxo-2,3,3a,6,7,7a-hexahydro-1H-benzo[d]imidazol-5-yl)-2-fluoro-N-methylbenzamide (±)]	0.218 µM
CNC(=O)c1ccc(N2C(=O)N(c3ccc(C#N)c(C(F)(F)F)c3)[C@@H]3COCC[C@H]32)cc1F (racemic) [Example 71, Trans-4-{3-[4-Cyano-3-(trifluoromethyl)phenyl]-2-oxo-octahydropyrano[3,4-d]imidazolidin-1-yl}-2-fluoro-N-methylbenzamide (±)]	0.655 µM
N#Cc1ccc(N2C(=O)N(c3ccc(C(=O)NOCC4CCC4)c(F)c3)[C@@H]3CCCC[C@H]32)cc1C(F)(F)F (racemic) [Example 21, Trans-4-(3-(4-cyano-3-(trifluoromethyl)phenyl)-2-oxooctahydro-1H-benzo[c]im-idazol-1-yl)-N-(cyclobutylmethoxy)-2-fluorobenzamide (±)]	0.255 µM
N#Cc1ccc(N2C(=O)N(c3ccc(C(N)=O)nc3)[C@H]3CCCC[C@@H]32)cc1C(F)(F)F [Example 55, 5-((3aS,7aS)-3-(4-cyano-3-(trifluoromethyl)phenyl)-2-oxooctahydro-1H-benzo[d]imidazol-1-yl)picolinamide]	0.174 µM
CNC(=O)c1ccc(N2C(=O)N(c3ccc(C#N)c(C(F)(F)F)c3)[C@@H]3CCCC[C@H]32)cc1C (racemic) [Example 39, Trans-4-(3-(4-cyano-3-(trifluoromethyl)phenyl)-2-oxooctahydro-1H-benzo[d]im-idazol-1-yl)-N,2-dimethylbenzamide (±)]	0.399 µM
COCCONC(=O)c1ccc(N2C(=O)N(c3ccc(C#N)c(C(F)(F)F)c3)[C@H]3CCCC[C@@H]32)cc1F [Example 29, 4-((3aS,7aS)-3-(4-Cyano-3-(trifluoromethyl)phenyl)-2-oxooctahydro-1H-benzo[d]imidazol-1-yl)-2-fluoro-N-(2-methoxyethoxy)benzamide]	0.176 µM
N#Cc1ccc(N2C(=O)N(c3ccc(C#N)c(C(F)(F)F)c3)[C@@H]3CCCC[C@H]32)cc1C(F)(F)F (racemic) [Example 2, Trans-4,4′-(2-oxohexahydro-1H-benzo[d]imidazole-1,3(2H)-diyl)bis(2-(trifluoromethyl)benzonitrile) (±)]	0.24 µM
CN1C(=O)N(c2ccc(C#N)c(C(F)(F)F)c2)[C@@H]2CCC(c3ccccc3)=C[C@H]21 (racemic) [Example 91, Trans-4-3-methyl-2-oxo-5-phenyl-2,3,3a,6,7,7a-hexahydro-1H-benzo[d]imidazol-1-yl)-2-(trifluoromethyl)benzonitrile (±)]	0.323 µM
N#Cc1ccc(N2C(=O)N(c3ccc(C(=O)NCCO)c(F)c3)[C@H]3CCCC[C@@H]32)cc1C(F)(F)F [Example 33, 4-((3aS,7aS)-3-(4-cyano-3-(trifluoromethyl)phenyl)-2-oxooctahydro-1H-benzo[d]imidazol-1-yl)-2-fluoro-N-(2-hydroxyethyl)benzamide]	0.0436 µM
N#Cc1ccc(N2C(=O)N(c3cc(Cl)cc(Cl)c3)[C@H]3CCCC[C@@H]32)cc1C(F)(F)F [Example 44, 4-((3aS,7aS)-3-(3,5-dichlorophenyl)-2-oxooctahydro-1H-benzo[d]imidazol-1-yl)-2-(trifluoromethyl)benzonitrile]	0.0964 µM
N#Cc1ccc(N2C(=O)N(Cc3ccc(Cl)nc3)[C@@H]3CCCC[C@H]32)cc1C(F)(F)F (racemic) [Example 47, Trans-4-(3-((6-chloropyridin-3-yl)methyl)-2-oxooctahydro-1H-benzo[d]imidazol-1-yl)-2-(trifluoromethyl)benzonitrile (±)]	0.0616 µM
N#Cc1ccc(N2C(=O)N(c3ccnc(C(N)=O)c3)[C@H]3CCCC[C@@H]32)cc1C(F)(F)F [Example 57, 4-((3aS,7aS)-3-(4-cyano-3-(trifluoromethyl)phenyl)-2-oxooctahydro-1H-benzo[d]imidazol-1-yl)picolinamide]	0.265 µM

Same assay, conditions: in the presence of 0.2 nM DHT, XTT readout on Day 10, IC50 curves from 8 concentrations

SMILES	IC50
N#Cc1ccc(N2C(=O)N(c3ccc(C#N)c(C(F)(F)F)c3)[C@@H]3CCCC[C@H]32)cc1C(F)(F)F (relative stereo) [Example 2a, Trans-4,4′-(2-oxohexahydro-1H-benzo[d]imidazole-1,3(2H)-diyl)bis(2-(trifluoromethyl)benzonitrile) (−)]	0.231 µM
CNC(=O)c1ccc(N2C(=O)N(c3ccc(C#N)c(C(F)(F)F)c3)[C@@H]3COCC[C@H]32)cc1F (relative stereo) [Example 71b, Trans-4-{3-[4-Cyano-3-(trifluoromethyl)phenyl]-2-oxo-octahydropyrano[3,4-d]imidazolidin-1-yl}-2-fluoro-N-methylbenzamide (−)]	0.379 µM
CC(COC(C)(C)C)ONC(=O)c1ccc(N2C(=O)N(c3ccc(C#N)c(C(F)(F)F)c3)[C@@H]3CCCC[C@H]32)cc1F (mixture of isomers) [Example 23, Trans-N-((1-(tert-butoxy)propan-2-yl)oxy)-4-(3-(4-cyano-3-(trifluoromethyl)phenyl)-2-oxooctahydro-1H-benzo[d]imidazol-1-yl)-2-fluorobenzamide (±)]	> 10 µM
CNC(=O)c1ccc(N2C(=O)N(c3ccc(C#N)c(C(F)(F)F)c3)[C@@H]3CCCC[C@H]32)cc1F (relative stereo) [Example 1b, Trans-4-{3-[4-cyano-3-(trifluoromethyl)phenyl]-2-oxo-octahydro-1H-1,3-benzodiazol-1-yl}-2-fluoro-N-Methylbenzamide (−)]	0.0906 µM
